Earlier results in patent US11793200B2, “Hypochlorous acid disinfectant and its production method” (SUPER AQUA INTERNATIONAL CO., LTD., priority 2019, dated 2023).

Test system: coliform
Settings: compared with hypochlorite ion (CLO-); both effective free chlorine; FIG. 2

Structure (SMILES): OCl [hypochlorous acid (HCLO), Hypochlorous acid]
- sterilization of hypochlorous acid (HCLO) relative to hypochlorite ion (CLO-): 80 times
